For assay [1], the target named is T1, CDK9/CycT1 (Homo sapiens, UniProt P50750).
T1 construct: purchased ProQinase
The assay is described as follows: ProQinase WT Profiler radiometric protein kinase assay. In kind it is biochemical. The settings on record: non standard IC50 from 4 concentrations, kinase 2.2 nM, ATP 1 μM. The procedure: (§1) Kinase inhibition profile of compound is determined by measuring residual activity values at four concentrations in singlicate in 320 wild-type protein kinase assays. The compounds are tested at 20 μM, 2 μM, 0.2 μM and 0.02 μM in singlicate. The final DMSO concentration in all reaction cocktails (including high and low controls) is 1%.
(§2) A radiometric protein kinase assay (33PANQINASE® Activity Assay, ProQinase) is used for measuring the kinase activity of the 320 protein kinases. All kinase assays are performed in 96-well FLASHPLATES™ in a 50 μL reaction volume. The reaction cocktail is pipetted in 4 steps in the following order:
(§3) All PKC assays (except the PKC-mu and the PKC-nu assay) additionally contain 1 mM CaCl2). 4 mM EDTA, 5 μg/mL Phosphatidylserine and 1 μg/mL 1,2-Dioleyl-glycerol. The CAMK1D, CAMK2A, CAMK2B, CAMK2D, CAMK2G, CAMK4, CAMKK1, CAMKK2, DAPK2, EEF2K, MYLK, MYLK2 and MYLK3 assays additionally contain 1 μg/mL Calmodulin and 0.5 mM CaCl2). The PRKG1 and PRKG2 assays additionally contain 1 μM cGMP. The DNA-PK assay additionally contained 2.5 μg/mL DNA.
(§4) The protein kinase reaction cocktails are incubated at 30° C. for 60 minutes. The reaction is stopped with 50 μL of 2% (v/v) H3PO4, plates are aspirated and washed two times with 200 μL 0.9% (w/v) NaCl. […] All protein kinase assays are performed with a BeckmanCoulter BIOMEK® 2000/SL robotic system. All protein kinases provided by ProQinase are expressed in Sf9 insect cells or in E. coli as recombinant GST-fusion proteins or His-tagged proteins, either as full-length or enzymatically active fragments. All kinases are produced from human cDNAs and purified by either GSH-affinity chromatography or immobilized metal. Affinity tags are removed from a number of kinases during purification. The purity of the protein kinases is examined by SDS-PAGE/Coomassie staining, the identity is checked by mass spectroscopy. Kinases from external vendors (CAR=Carna Biosciences Inc.; INV=Life Technologies (Invitrogen Corporation™); MIL=Merck-Millipore (Millipore Corporation™), see Table 1) are expressed, purified and quality-controlled by virtue of the vendors readings.
(§5) For each kinase, the median value of the cpm of three wells is defined as “low control” (n=3). This value reflects unspecific binding of radioactivity to the plate in the absence of a protein kinase but in the presence of the substrate. […] The difference between high and low control of each enzyme is taken as 100% activity. As part of the data evaluation, the low control of each kinase is subtracted from the high control value as well as from their corresponding “compound values”. The residual activity (in %) for each compound well is calculated by using the following formula: Res. Activity (%)=100×[(signal of compound−low control)/(high control−low control)]. Non Standard IC50s are calculated using a customized excel spreadsheet in conjunction with XLFit Add-in. Due to the low number of data points, (4) XL-Fit calculates a non standard IC50 using a four parametric equation where three parameters are locked to fixed values.
(§6) A: Minimum value of activity, Also known as Bottom. Fixed to 0 B: Maximum value of activity, Also known as Top. Fixed to 100 C: Inflexion point of the curve D: Hill Slope. Fixed to 1 Y: The dependent variable (i.e. what you measure as the signal) X: The independent variable (i.e. what you control, such as, dose, concentration, etc.)
(§7) The way to calculate the Non Standard IC50 is to assign random values to C parameter and repeat it iteratively. The algorithm then measures the differences in the sum of the residuals squared and will look for successive consecutive iterations where the change in the residuals is converging.

Assay [2] concerns the target T2, CDK6/CycD1 (Homo sapiens, UniProt Q00534).
T2 construct: purchased ProQinase
The description is as above. In kind it is biochemical. The settings on record: non standard IC50 from 4 concentrations, kinase 3.2 nM, ATP 3 μM. On the procedure: as §1, §2, §3, §4, §5, §6, §7

Assay [3] concerns the target T3, CDK7/CycH/MAT1 (Homo sapiens, UniProt P50613).
T3 construct: purchased ProQinase
The assay is described as above. The settings on record: non standard IC50 from 4 concentrations, kinase 3.3 nM, ATP 3 μM. It is filed as biochemical. The procedure: as §1, §2, §3, §4, §5, §6, §7

The target of assay [4] is T4, CDK4/CycD1 (Homo sapiens, UniProt P11802).
T4 construct: purchased ProQinase
T4 sequence (P11802 whole entry): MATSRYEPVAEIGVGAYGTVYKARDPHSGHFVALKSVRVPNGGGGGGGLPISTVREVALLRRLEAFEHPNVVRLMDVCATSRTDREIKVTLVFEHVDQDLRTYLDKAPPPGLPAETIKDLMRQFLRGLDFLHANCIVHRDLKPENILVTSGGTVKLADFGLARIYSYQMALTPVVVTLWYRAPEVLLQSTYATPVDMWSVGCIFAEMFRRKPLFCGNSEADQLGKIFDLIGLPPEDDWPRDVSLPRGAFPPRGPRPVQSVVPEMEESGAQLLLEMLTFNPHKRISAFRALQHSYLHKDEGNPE
T4 sequence (P24385 whole entry partner): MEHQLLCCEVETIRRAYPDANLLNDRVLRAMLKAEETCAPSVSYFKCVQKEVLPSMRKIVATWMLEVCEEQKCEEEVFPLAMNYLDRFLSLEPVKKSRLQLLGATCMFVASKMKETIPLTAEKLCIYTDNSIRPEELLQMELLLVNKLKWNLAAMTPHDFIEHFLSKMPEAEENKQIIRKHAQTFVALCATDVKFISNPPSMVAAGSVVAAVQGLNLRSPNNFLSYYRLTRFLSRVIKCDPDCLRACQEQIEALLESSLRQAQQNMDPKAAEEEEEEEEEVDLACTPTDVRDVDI
The description is as above. It is filed as biochemical. The note with it: non standard IC50 from 4 concentrations, kinase 3.3 nM, ATP 3 μM. The procedure: as §1, §2, §3, §4, §5, §6, §7

Assay [5] concerns the target T5, CDK8/CycC (Homo sapiens, UniProt P49336).
T5 construct: purchased ProQinase
The description is as above. In kind it is biochemical. The settings on record: non standard IC50 from 4 concentrations, kinase 8.3 nM, ATP 1 μM. On the procedure: as §1, §2, §3, §4, §5, §6, §7

The subject of assay [6] is MDAMB468 xenograft. In words: Xenograft Tumor Model. In kind it is in vivo, mice. The note with it: MDAMB468, Breast, ARID1A, RB1; NOD SCID Gamma; 20 mg/kg PO QDx28. On the procedure:
(§8) To evaluate in vivo efficacy of a test compound, multiple xenograft tumor models are utilized. Briefly, 5-10×10^6 tumor cells in a 1:1 MATRIGEL® mix (0.2 mL total volume) are injected subcutaneously into the female athymic nude mice (Envigo, Harlan laboratories) for a majority of xenograft tumor models. Alternate mice strains are utilized to establish MDAMB468 (NOD SCID Gamma, Jackson labs), CT26 and EMT6 (BALB/c, Envigo, Harlan Laboratories) xenografts. After allowing tumors to reach a desired size of ˜300-500 mm^3, animals are randomized into groups of 6-8 for efficacy studies. Test compound is administered via oral gavage (PO) at indicated doses and regimens. Tumor growth and body weight are monitored over time to evaluate efficacy and signs of toxicity.
(§9) Test compound is formulated in 5% N-methyl-2-pyrrolidone (NMP) in 1% hydroxyethylcellulose, 0.25% polysorbate 80, 0.05% antifoam in purified water (HEC) and administered by oral gavage (final volume 0.2 mL) at the doses indicated in Table 4. A test compound is formulated on a weekly basis and stored at 4° C. Vehicles are administered to the control groups according the schedules used above using a volume of 0.2 mL per dose. Mice are dosed via oral gavage and tumor samples are collected at termination and stored at −80° C.
(§10) Tumor size and body weight are recorded and analyzed bi-weekly. Blood is collected using DBS (dried blood spot) card 2 hours after dose and at termination. Tumors are collected at study termination, cut into 3 sections and either snap frozen for exposure and protein analysis, or placed in RNAlater® for RNA analysis. Tissue samples are frozen and stored at −80° C.
(§11) Delta T/C % is calculated when the endpoint tumor volume in a treated group is at or above baseline tumor volume. The formula is 100*(T−T0)/(C−C0). Here, T and C are mean endpoint tumor volumes in the treated or control group, respectively. TO and CO are mean baseline tumor volumes in those groups. *: Significant (p<0.05)

Assay [7] deals with MDAMB231 xenograft. The assay is described as follows: Xenograft Tumor Model. It is filed as in vivo, mice. The note with it: MDAMB231, Breast; 20 mg/kg PO QDx35. On the procedure:
as §8, §9, §10, §11

Structures are written as SMILES.

T1 sequence (P50750 whole entry): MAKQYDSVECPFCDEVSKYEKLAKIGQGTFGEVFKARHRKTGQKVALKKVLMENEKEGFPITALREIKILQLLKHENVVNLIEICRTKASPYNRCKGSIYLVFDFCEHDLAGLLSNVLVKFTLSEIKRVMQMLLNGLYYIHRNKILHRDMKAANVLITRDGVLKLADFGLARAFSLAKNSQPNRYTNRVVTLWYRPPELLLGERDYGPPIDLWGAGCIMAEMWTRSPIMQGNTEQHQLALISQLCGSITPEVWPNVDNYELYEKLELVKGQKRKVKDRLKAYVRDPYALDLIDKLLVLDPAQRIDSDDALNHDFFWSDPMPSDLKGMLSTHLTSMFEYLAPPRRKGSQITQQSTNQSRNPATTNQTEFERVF
T1 sequence (O60563 whole entry partner): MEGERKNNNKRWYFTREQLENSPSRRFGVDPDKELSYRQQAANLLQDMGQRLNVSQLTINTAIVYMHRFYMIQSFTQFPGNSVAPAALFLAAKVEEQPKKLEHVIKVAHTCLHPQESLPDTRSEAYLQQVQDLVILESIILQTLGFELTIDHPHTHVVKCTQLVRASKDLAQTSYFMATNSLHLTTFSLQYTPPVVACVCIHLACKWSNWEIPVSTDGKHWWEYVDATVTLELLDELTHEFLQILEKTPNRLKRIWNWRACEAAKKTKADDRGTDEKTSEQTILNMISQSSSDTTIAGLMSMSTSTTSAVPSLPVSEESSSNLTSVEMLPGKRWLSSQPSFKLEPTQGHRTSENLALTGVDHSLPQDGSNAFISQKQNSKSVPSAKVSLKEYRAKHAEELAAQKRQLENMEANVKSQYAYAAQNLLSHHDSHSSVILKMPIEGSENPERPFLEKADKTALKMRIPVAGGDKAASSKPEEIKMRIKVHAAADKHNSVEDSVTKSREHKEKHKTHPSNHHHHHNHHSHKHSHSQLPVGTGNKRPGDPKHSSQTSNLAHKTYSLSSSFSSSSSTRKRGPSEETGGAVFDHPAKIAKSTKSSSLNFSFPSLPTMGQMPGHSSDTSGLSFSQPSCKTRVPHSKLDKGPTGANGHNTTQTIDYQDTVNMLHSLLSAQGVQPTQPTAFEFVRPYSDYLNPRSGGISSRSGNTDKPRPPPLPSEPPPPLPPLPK
T3 sequence (P50613 whole entry): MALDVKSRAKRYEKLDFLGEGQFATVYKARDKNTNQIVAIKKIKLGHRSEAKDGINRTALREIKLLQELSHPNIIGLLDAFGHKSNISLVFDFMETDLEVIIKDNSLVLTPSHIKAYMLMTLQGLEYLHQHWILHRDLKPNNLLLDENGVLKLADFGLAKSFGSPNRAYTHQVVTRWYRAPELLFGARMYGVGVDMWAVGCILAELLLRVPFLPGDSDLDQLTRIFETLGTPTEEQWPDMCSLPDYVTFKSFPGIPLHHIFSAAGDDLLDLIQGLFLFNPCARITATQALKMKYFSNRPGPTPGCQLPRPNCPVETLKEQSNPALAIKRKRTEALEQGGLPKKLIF
T3 sequence (P51946 whole entry partner): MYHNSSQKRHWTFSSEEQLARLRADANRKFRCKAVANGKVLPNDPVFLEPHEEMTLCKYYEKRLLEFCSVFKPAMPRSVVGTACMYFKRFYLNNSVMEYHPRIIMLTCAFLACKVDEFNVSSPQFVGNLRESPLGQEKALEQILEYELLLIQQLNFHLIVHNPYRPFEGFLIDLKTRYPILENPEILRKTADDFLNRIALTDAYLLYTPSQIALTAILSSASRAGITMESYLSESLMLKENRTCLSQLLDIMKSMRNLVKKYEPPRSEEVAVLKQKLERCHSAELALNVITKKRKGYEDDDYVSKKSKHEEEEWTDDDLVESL
T3 sequence (P51948 whole entry partner): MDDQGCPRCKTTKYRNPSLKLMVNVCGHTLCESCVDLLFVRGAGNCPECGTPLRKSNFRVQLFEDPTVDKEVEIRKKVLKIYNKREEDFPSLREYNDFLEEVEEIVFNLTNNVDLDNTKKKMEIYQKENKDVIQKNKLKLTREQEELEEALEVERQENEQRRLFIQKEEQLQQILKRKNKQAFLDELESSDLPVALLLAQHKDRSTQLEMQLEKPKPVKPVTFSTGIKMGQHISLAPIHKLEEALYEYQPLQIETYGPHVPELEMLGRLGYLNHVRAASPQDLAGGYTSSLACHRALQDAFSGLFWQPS
T5 sequence (P49336 whole entry): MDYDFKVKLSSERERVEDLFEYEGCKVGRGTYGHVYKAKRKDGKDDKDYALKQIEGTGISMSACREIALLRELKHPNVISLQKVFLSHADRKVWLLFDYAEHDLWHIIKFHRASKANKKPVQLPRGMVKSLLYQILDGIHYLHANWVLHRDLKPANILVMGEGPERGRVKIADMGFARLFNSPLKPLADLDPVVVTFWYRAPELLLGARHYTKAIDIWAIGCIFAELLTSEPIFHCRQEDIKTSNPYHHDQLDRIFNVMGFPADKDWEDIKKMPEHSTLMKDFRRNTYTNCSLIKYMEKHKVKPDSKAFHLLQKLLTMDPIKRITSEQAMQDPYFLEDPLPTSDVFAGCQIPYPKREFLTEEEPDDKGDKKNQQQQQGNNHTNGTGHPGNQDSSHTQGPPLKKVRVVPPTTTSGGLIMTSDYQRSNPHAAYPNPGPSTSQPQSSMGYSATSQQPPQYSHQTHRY
T5 sequence (P24863 whole entry partner): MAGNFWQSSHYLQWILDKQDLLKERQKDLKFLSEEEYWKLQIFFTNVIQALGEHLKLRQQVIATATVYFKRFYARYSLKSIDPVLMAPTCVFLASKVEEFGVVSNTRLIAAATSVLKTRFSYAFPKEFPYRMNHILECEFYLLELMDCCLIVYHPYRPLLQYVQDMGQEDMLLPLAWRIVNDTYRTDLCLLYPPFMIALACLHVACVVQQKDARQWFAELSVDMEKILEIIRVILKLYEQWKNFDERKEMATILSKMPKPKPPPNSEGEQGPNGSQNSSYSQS
T2 sequence (Q00534 whole entry): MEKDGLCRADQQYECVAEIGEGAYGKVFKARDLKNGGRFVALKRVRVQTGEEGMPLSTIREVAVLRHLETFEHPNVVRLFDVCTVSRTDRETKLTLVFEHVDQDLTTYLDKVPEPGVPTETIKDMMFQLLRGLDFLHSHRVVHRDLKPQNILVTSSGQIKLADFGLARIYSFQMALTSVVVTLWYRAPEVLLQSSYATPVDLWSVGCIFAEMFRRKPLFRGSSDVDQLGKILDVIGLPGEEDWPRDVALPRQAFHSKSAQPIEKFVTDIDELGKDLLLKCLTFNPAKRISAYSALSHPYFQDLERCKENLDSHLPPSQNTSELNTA
T2 sequence (P24385 whole entry partner): as the sequence (P24385 whole entry partner) above

Regarding `Cc1cc(NC2CCN(C(=O)O[C@H]3CCN(C(=O)/C=C/CN(C)C)C3)CC2)n2ncc(C(C)C)c2n1` [Example 1, [(3S)-1-[(E)-4-(dimethylamino)but-2-enoyl]pyrrolidin-3-yl] 4-[(3-isopropyl-5-methyl-pyrazolo[1,5-a]pyrimidin-7-yl)amino]piperidine-1-carboxylate], the IC50 was 6.32 µM in assay [1]; 8.08 µM in assay [2]; 92.8 nM in assay [3]; 2830 nM in assay [4]; 10.9 µM in assay [5]. In addition, the “Avg. ΔT/C” value in assay [6] is recorded as −91%; in assay [7] it was −25%.

For orientation: IC50 means the concentration that gives 50% inhibition.

The values are drawn from patent publication US20210032257A1, “(E)-1-(4-(DIMETHYLAMINO)BUT-2-ENOYL)PYRROLIDIN-3-YL 4-((3-ISOPROPYL-5-METHYLPYRAZOLO[1,5-A]PYRIMIDIN-7-YL)AMINO)PIPERIDINE-1-CARBOXYLATE FOR INHIBITING CDK7” (Eli Lilly and Company, priority 2017, published 2021).
